Results taken from US20260262643A1, “HERBICIDAL BENZOXAZINES” (FMC CORPORATION, priority 2022, published 2026).

Columns and labels:
barnyardgrass [1] = experiment: Test C preemergence; type: in vivo, Echinochloa crusgalli; settings: 0 to 100 scale (0 no effect, 100 complete control)
How it was run: (§1)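 Visual injury score, 0–100 (100 = complete control), taken 10 days after treatment relative to untreated controls. Pre: directed spray onto soil over sown seeds. Post: foliar spray at one- to two-leaf stage, 2–10 cm. Solvent/surfactant formulation; loam–sand soil; greenhouse.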

blackgrass [2] = experiment: Test C preemergence; type: in vivo, Alopecurus myosuroides; settings: 0 to 100 scale (0 no effect, 100 complete control)
How it was run: as §1

corn [3] = experiment: Test C preemergence; type: in vivo, Zea mays; settings: 0 to 100 scale (0 no effect, 100 complete control)
How it was run: as §1

green foxtail [4] = experiment: Test C preemergence; type: in vivo, Setaria viridis; settings: 0 to 100 scale (0 no effect, 100 complete control)
How it was run: as §1

kochia [5] = experiment: Test C preemergence; type: in vivo, Bassia scoparia; settings: 0 to 100 scale (0 no effect, 100 complete control)
How it was run: as §1

oat, wild [6] = experiment: Test C preemergence; type: in vivo, Avena fatua; settings: 0 to 100 scale (0 no effect, 100 complete control)
How it was run: as §1

pigweed, palmer [7] = experiment: Test C preemergence; type: in vivo, Amaranthus palmeri; settings: 0 to 100 scale (0 no effect, 100 complete control)
How it was run: as §1

ragweed [8] = experiment: Test C preemergence; type: in vivo, Ambrosia artemisiifolia; settings: 0 to 100 scale (0 no effect, 100 complete control)
How it was run: as §1

ryegrass, Italian [9] = experiment: Test C preemergence; type: in vivo, Lolium multiflorum; settings: 0 to 100 scale (0 no effect, 100 complete control)
How it was run: as §1

soybean [10] = experiment: Test C preemergence; type: in vivo, Glycine max; settings: 0 to 100 scale (0 no effect, 100 complete control)
How it was run: as §1

wheat [11] = experiment: Test C preemergence; type: in vivo, Triticum aestivum; settings: 0 to 100 scale (0 no effect, 100 complete control)
How it was run: as §1

barnyardgrass [12] = experiment: Test C postemergence; type: in vivo, Echinochloa crusgalli; settings: 10 days
How it was run: as §1

blackgrass [13] = experiment: Test C postemergence; type: in vivo, Alopecurus myosuroides; settings: Postemergence, 500 g ai/ha, 10 days, visual 0 to 100 scale (0 no effect, 100 complete control)
How it was run: as §1

corn [14] = experiment: Test C postemergence; type: in vivo, Zea mays; settings: 10 days
How it was run: as §1

green foxtail [15] = experiment: Test C postemergence; type: in vivo, Setaria viridis; settings: 10 days
How it was run: as §1

kochia [16] = experiment: Test C postemergence; type: in vivo, Bassia scoparia; settings: 10 days
How it was run: as §1

oat, wild [17] = experiment: Test C postemergence; type: in vivo, Avena fatua; settings: 10 days
How it was run: as §1

pigweed, palmer [18] = experiment: Test C postemergence; type: in vivo, Amaranthus palmeri; settings: 10 days
How it was run: as §1

ragweed [19] = experiment: Test C postemergence; type: in vivo, Ambrosia artemisiifolia; settings: 10 days
How it was run: as §1

ryegrass, Italian [20] = experiment: Test C postemergence; type: in vivo, Lolium multiflorum; settings: 10 days
How it was run: as §1

soybean [21] = experiment: Test C postemergence; type: in vivo, Glycine max; settings: 10 days
How it was run: as §1

wheat [22] = experiment: Test C postemergence; type: in vivo, Triticum aestivum; settings: 10 days
How it was run: as §1

galium = experiment: Test C postemergence; type: in vivo, Galium aparine; settings: 10 days
How it was run: as §1

horseweed = experiment: Test C postemergence; type: in vivo, Erigeron canadensis; settings: 10 days
How it was run: as §1

barnyardgrass [23] = experiment: Test D flooded paddy test; type: in vivo, Echinochloa crus-galli; settings: 250 g ai/ha, applied to paddy water, visual rating after 13 to 14 days, scale 0 to 100 (0 no effect, 100 complete control)
How it was run: (§2)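 Post-flood water application at the 2-leaf stage; 3 cm flood depth kept constant; visual control rating 0–100 after 13–14 days greenhouse growth.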

ducksalad = experiment: Test D flooded paddy test; type: in vivo, Heteranthera limosa; settings: 250 g ai/ha, applied to paddy water, visual rating after 13 to 14 days, scale 0 to 100 (0 no effect, 100 complete control)
How it was run: as §2

rice = experiment: Test D flooded paddy test; type: in vivo, Oryza sativa; settings: 250 g ai/ha, applied to paddy water, visual rating after 13 to 14 days, scale 0 to 100 (0 no effect, 100 complete control)
How it was run: as §2

sedge, umbrella = experiment: Test D flooded paddy test; type: in vivo, Cyperus difformis; settings: 250 g ai/ha, applied to paddy water, visual rating after 13 to 14 days, scale 0 to 100 (0 no effect, 100 complete control)
How it was run: as §2

[24] = Preemergence, 500 g ai/ha, visual rating after 10 days
[25] = Test C, preemergence, 125 g ai/ha
[26] = 125 g ai/ha, postemergence, 0 to 100 scale, 0 no effect, 100 complete control
[27] = Postemergence, 500 g ai/ha, visual 0 to 100 scale (0 no effect, 100 complete control)

## CC(C)=C(C)c1ncn(-c2cccc(C(=O)N3C[C@H](C)Oc4c(C)cccc43)c2)n1 [Compound 262]
Barnyardgrass [1]; [24]
  Plant response rating, Barnyardgrass: 90
Barnyardgrass [1]; [25]
  Barnyardgrass plant response rating: 60
Blackgrass [2]; [24]
  Plant response rating, Blackgrass: 90
Blackgrass [2]; [25]
  Blackgrass plant response rating: 60
Corn [3]; [24]
  Plant response rating, Corn: 40
Corn [3]; [25]
  Corn plant response rating: 40
Green foxtail [4]; [24]
  Plant response rating, Foxtail, Green: 100
Green foxtail [4]; [25]
  Foxtail, Green plant response rating: 100
Kochia [5]; [24]
  Plant response rating, Kochia: 80
Kochia [5]; [25]
  Kochia plant response rating: 40
oat, wild [6]; [24]
  Plant response rating, Oat, Wild: 80
oat, wild [6]; [25]
  Oat, Wild plant response rating: 50
pigweed, palmer [7]; [24]
  Plant response rating, Pigweed, Palmer: 90
pigweed, palmer [7]; [25]
  Pigweed, Palmer plant response rating: 70
Ragweed [8]; [24]
  Plant response rating, Ragweed: 60
Ragweed [8]; [25]
  Ragweed plant response rating: 0
ryegrass, Italian [9]; [24]
  Plant response rating, Ryegrass, Italian: 90
ryegrass, Italian [9]; [25]
  Ryegrass, Italian plant response rating: 70
Soybean [10]; [24]
  Plant response rating, Soybean: 70
Soybean [10]; [25]
  Soybean plant response rating: 30
Wheat [11]; [24]
  Plant response rating, Wheat: 70
Wheat [11]; [25]
  Wheat plant response rating: 20
Barnyardgrass [12]; [26]
  Plant response rating, Barnyardgrass: 60
Barnyardgrass [12]; [27]
  Plant response rating, Barnyardgrass: 90
Blackgrass [13]
  Plant response rating, Blackgrass: 90
Corn [14]; [26]
  Plant response rating, Corn: 60
Corn [14]; [27]
  Plant response rating, Corn: 80
Green foxtail [15]; [26]
  Plant response rating, Foxtail, Green: 70
Green foxtail [15]; [27]
  Plant response rating, Foxtail, Green: 90
Kochia [16]; [26]
  Plant response rating, Kochia: 50
Kochia [16]; [27]
  Plant response rating, Kochia: 90
oat, wild [17]; [26]
  Plant response rating, Oat, Wild: 60
oat, wild [17]; [27]
  Plant response rating, Oat, Wild: 80
pigweed, palmer [18]; [26]
  Plant response rating, Pigweed, Palmer: 70
pigweed, palmer [18]; [27]
  Plant response rating, Pigweed, Palmer: 90
Ragweed [19]; [26]
  Plant response rating, Ragweed: 40
Ragweed [19]; [27]
  Plant response rating, Ragweed: 70
ryegrass, Italian [20]; [26]
  Plant response rating, Ryegrass, Italian: 80
ryegrass, Italian [20]; [27]
  Plant response rating, Ryegrass, Italian: 90
Soybean [21]; [26]
  Plant response rating, Soybean: 100
Soybean [21]; [27]
  Plant response rating, Soybean: 100
Wheat [22]; [26]
  Plant response rating, Wheat: 30
Wheat [22]; [27]
  Plant response rating, Wheat: 50
galium; [26]
  Plant response rating, Galium: 100
galium; [27]
  Plant response rating, Galium: 100
horseweed; [26]
  Plant response rating, Horseweed: 10
horseweed; [27]
  Plant response rating, Horseweed: 10
Barnyardgrass [23]
  Plant response rating, Barnyardgrass (Flood): 0
ducksalad
  Plant response rating, Ducksalad (Flood): 0
rice
  Plant response rating, Rice (Flood): 0
sedge, umbrella
  Plant response rating, Sedge, Umbrella (Flood): 0
